According to the NIST ThermoML archive (doi:10.1016/j.jct.2009.02.002):
Numbers after ± are expanded uncertainties.

Conditions: 101.33 kPa, Liquid; for viscosity: Capillary tube (Ostwald / Ubbelohde) method; for mass density: Vibrating tube method
[1] = 298.15 K, automatically measured using an Anton Paar DSA 5000 instrument
[2] = 303.15 K, automatically measured using an Anton Paar DSA 5000 instrument
[3] = 308.15 K, automatically measured using an Anton Paar DSA 5000 instrument

viscosity (298.15 K) [mPa·s] | mass density (298.15 K) [kg/m3] | speed of sound [1] [m/s] | viscosity (303.15 K) [mPa·s] | mass density (303.15 K) [kg/m3] | speed of sound [2] [m/s] | viscosity (308.15 K) [mPa·s] | mass density (308.15 K) [kg/m3] | speed of sound [3] [m/s] | speed of sound (298.15 K, Pulse-echo method) [m/s] | speed of sound (303.15 K, Pulse-echo method) [m/s] | speed of sound (308.15 K, Pulse-echo method) [m/s] | SMILES
28.26 ± 0.14 | 805.122 ± 0.14 | 1381.9 ± 0.5 | 22.09 ± 0.11 | 801.912 ± 0.14 | 1364.1 ± 0.5 | 17.77 ± 0.09 | 798.709 ± 0.14 | 1346.5 ± 0.5 |  |  |  | CC(C)CCCC(C)CCCC(C)CCCCC(C)CCCC(C)CCCC(C)C (configuration not stated) [2,6,10,15,19,23-hexamethyltetracosane]
3.404 ± 0.021 | 798.52 ± 0.14 | 1189.6 ± 0.5 | 2.695 ± 0.017 | 794.6 ± 0.14 | 1172.9 ± 0.5 | 2.188 ± 0.014 | 790.63 ± 0.15 | 1156.2 ± 0.5 |  |  |  | CC(C)CO [2-methyl-1-propanol]
3.041 ± 0.019 | 770.456 ± 0.15 |  | 2.706 ± 0.017 | 766.981 ± 0.15 |  | 2.409 ± 0.015 | 763.52 ± 0.15 |  | 1338.6 ± 0.8 | 1320 ± 0.8 | 1301.7 ± 0.8 | CCCCCCCCCCCCCCCC [hexadecane]
